In patent US20240360179A1, “STAPLED PEPTIDES AND METHODS THEREOF” (FOG PHARMACEUTICALS, INC., priority 2021, published 2024):
Read-outs that look alike come from different tables or passages of the source.

Tested on: COLO320DM cells
Experiment: COLO320DM proliferation assay (CellTiter-Glo)
Assay type: cell-based, human
Method: COLO320DM proliferation assay IC50: In some embodiments, inhibition of cell proliferation by provided technologies were assessed using cell lines related to or from certain conditions, disorders or diseases. In some embodiments, cell proliferation was assessed in COLO320DM cells. In some embodiments, assessment was performed using the following procedure: On Day 1, cultured COLO320DM cells in a T75 flask were trypsinized in 3 mL of 0.250% trypsin/EDTA for 5 min and quenched with 10 mL RPMI-1640+4% HI FBS assay media. The cells were spun down at 1200 rpm for 5 min, the cell pellet collected and re-suspended at 5000 cells/mL in assay media. Using a Combi liquid handler, cells were dispensed (50 uL, 250 cells/well) into three 384 well plates. Plates were incubated at 37° C., 5% CO2 for 18-22 h. On day 2, compounds were added. A liquid handling system was used to prepare the compound dilution and dispense compound into assay plates. The compounds were serially diluted 1/2 in 90% DMSO to create a 7 point dose curve. From compound plate, 100 nL of compound were dispensed directly into wells of the assay plates to create a dose curve starting at 20 uM and ending at 313 nM. Assay plates were incubated at 37° C., 5% CO2 for 96 h. On day 6, assay plates were removed from the incubator and allowed to sit at room temperature for 30 min. Using a liquid handler, 20 uL of CellTiter Glo reagent was added to each well. The assay plates were shaken for 2 min and allowed to sit on the bench for 10-15 minutes. The assay plates were read using the CellTiter Glo protocol on a GloMax microplate reader, and the data analyzed using GraphPad Prism. Activities of various agents, including various stapled peptides in Table E2, were confirmed.
In some embodiments, an assessment was performed as follows. On day 0, cells were seeded in cell culture media (RPMI1640, 4% FBS) in a 96-well plate at desired density, typically at 1000 cells/well. On day 1, 10 mM agent stock solution (in DMSO) was first serially diluted into DMSO at 1:2 ratio, followed by diluting with cell culture media at two times of the final concentrations. Finally, agent-containing media were introduced to cell culture wells already having the same volume of cell culture media. Cells were incubated with agents for desired days before lysed for CellTiter-Glo® Luminescent Cell Viability Assay according to the manufacture instruction (Promega, G7570). Luminescent signal was obtained from a microplate reader (GloMax, Promega). Cell viability data was expressed as % relative to DMSO control wells.
Proliferation Assay. In some embodiments, various proliferation assays are utilized to characterize or assess provided technologies. In some embodiments, on day 0, cells were seeded in cell culture media in a 96-well plate at desired density, typically at 1000 cells/well. On day 1, 10 mM compound stock solution was first serially diluted into DMSO, followed by diluting with cell culture media at two times of the final concentrations. Finally, compound-containing media were introduced to cell culture wells already having the same volume of cell culture media. Cells were incubated with compounds for desired days before lysed for CTG according to the manufacture instruction (G7570, Promega). Luminescent signal was obtained from a microplate reader (GloMax, Promega).

[1] = read-out: COLO320DM Proliferation Abs IC50

Molecule: Ac-PL3-Asp-Npg-B5-Asp-3COOHF-Aib-Ala-Phe-Lys*3-PyrS2-3Thi-BztA-GlnR*3-Ala-Ala-Leu-Leu-NH2 [I-806]
- IC50 [1]: ≤ 10 µM

Molecule: Ac-PL3-Asp-Npg-B5-Asp-3COOHF-Aib-Ala-Phe-Lys*3-PyrS2-Phe-34ClF-GlnR*3-Pro-NH2 [I-872]
- IC50 [1]: ≤ 10 µM

Molecule: Ac-PL3-Asp-Npg-B5-Asp-3COOHF-Aib-Ala-Phe-Lys*3-PyrS2-Phe-34MeF-GlnR*3-NH2 [I-1103]
- IC50 [1]: ≤ 10 µM

Molecule: Ac-PL3-Asp-Npg-B5-Asp-3COOHF-Aib-Ala-Phe-Lys*3-PyrS2-3Thi-BztA-GlnR*3-Leu-Ser-NH2 [I-785]
- IC50 [1]: ≤ 10 µM

Molecule: CC(=O)N1CCC[C@]12CC=CCCCC1(CCCC=CCCCOC(=O)N3CC[C@@]4(C3)NC(=O)[C@H](CCCCNC(=O)CC[C@@H](C(=O)N[C@@H](C)C(N)=O)NC(=O)[C@H](Cc3csc5ccccc35)NC(=O)[C@H](Cc3cccnc3)NC4=O)NC(=O)[C@H](Cc3ccccc3)NC(=O)[C@H](C)NC(=O)C(C)(C)NC(=O)[C@H](Cc3cccc(C(=O)O)c3)NC(=O)[C@H](CC(=O)O)NC1=O)NC(=O)[C@H](CC(C)(C)C)NC(=O)[C@H](CC(=O)O)NC2=O (relative stereo) [I-300, Ac-PL3-Asp-Npg-B5-Asp-3COOHF-Aib-Ala-Phe-Lys*3-PyrS2-3PyrA-BztA-GlnR*3-Ala-NH2]
- IC50 [1]: > 20 µM

Molecule: Ac-PL3-Asp-Ile-B5-Asp-3COOHF-Ala-Ala-Phe-TriAzLys*3-PyrS2-Phe-34ClF-sAla*3-NH2 [I-1863]
- IC50 [1]: ≤ 10 µM

Molecule: Ac-PL3-Asp-DipA-B5-Asp-3COOHF-Aib-Ala-Phe-Lys*3-PyrS2-3Thi-34ClF-GlnR*3-NH2 [I-1108]
- IC50 [1]: ≤ 10 µM

Molecule: Ac-PL3-Asp-Ile-B5-Asp-3COOHF-Ala-Ala-Phe-sAla*3-PyrS2-Phe-34ClF-TriAzLys*3-NH2 [I-1864]
- IC50 [1]: > 20 µM

Molecule: Ac-PL3-Asp-Npg-B5-Asp-3COOHF-Aib-Ala-Phe-Lys*3-PyrS2-[15PyraPy]2NH2F-BztA-GlnR*3-Ala-NH2 [I-1752]
- IC50 [1]: ≤ 10 µM

Molecule: Ac-PL3-Asp-DipA-B5-Asp-3COOHF-Ala-Ala-Phe-Lys*3-PyrS2-3Thi-34ClF-GlnR*3-Ala-Ala-Ala-[mPEG8]-Lys [I-1705]
- IC50 [1]: ≤ 10 µM

Molecule: Ac-PL3-Asp-Ile-B5-Asp-3COOHF-Aib-Ala-Phe-GlnR*3-PyrS2-Phe-34ClF-Lys*3-NH2 [I-1367]
- IC50 [1]: ≤ 10 µM

Molecule: Ac-PL3-Asp-Npg-B5-Asp-3COOHF-Aib-Ala-Phe-Lys*3-PyrS2-3Thi-BztA-GlnR*3-[mPEG8]Lys-NH2 [I-1182]
- IC50 [1]: > 20 µM

Molecule: Ac-PL3-Asp-Chg-B5-Asp-3COOHF-Aib-Ala-Phe-Lys*3-PyrS2-Phe-34ClF-GlnR*3-NH2 [I-1048]
- IC50 [1]: ≤ 10 µM

Molecule: Ac-PL3-Asp-Npg-B5-Asp-3COOHF-Aib-Ala-Phe-Lys*3-PyrS2-3Thi-34ClF-GlnR*3-Ala-Ala-Ala-[mPEG8]-Lys [I-1707]
- IC50 [1]: ≤ 10 µM

Molecule: Ac-PL3-Asp-Chg-B5-Asp-3COOHF-Ala-Ala-Phe-Lys*3-PyrS2-2ClF-BztA-GlnR*3-NH2 [I-1531]
- IC50 [1]: ≤ 10 µM

Molecule: Ac-PL3-Asp-DipA-B5-Asn-3COOHF-nLeu-Ala-Phe-Lys*3-PyrS2-3Thi-34ClF-GlnR*3-NH2 [I-1638]
- IC50 [1]: ≤ 10 µM

Molecule: Ac-PL3-Asp-Ile-B5-Asp-3COOHF-Ala-Ala-Phe-TriAzLys*3-PyrS2-Phe-34ClF-sCH2S*3-NH2 [I-1865]
- IC50 [1]: ≤ 10 µM

Molecule: Ac-PL3-Asp-DipA-B5-Asp-3COOHF-Ala-Ala-Phe-Lys*3-PyrS2-3Thi-34ClF-GlnR*3-Ala-Ala-[C18-dPEG2]-Lys-NH2-NH2 [I-1791]
- IC50 [1]: ≤ 10 µM

Molecule: Ac-PL3-Asp-Npg-B5-Asp-3COOHF-Aib-Ala-Phe-Lys*3-PyrS2-3Thi-BztA-GlnR*3-Ala-Ala-Val-Pro-Thr-Leu-Lys-NH2 [I-813]
- IC50 [1]: ≤ 10 µM

Molecule: Ac-PL3-Asp-DipA-B5-Asp-3COOHF-nLeu-Ala-Phe-Lys*3-PyrS2-3Thi-BztA-GlnR*3-Ala-NH2 [I-986]
- IC50 [1]: ≤ 10 µM

Molecule: Ac-PL3-Asp-Npg-B5-Asp-3COOHF-Aib-Ala-Phe-Lys*3-PyrS2-2NH2F-BztA-GlnR*3-Ala-NH2 [I-1736]
- IC50 [1]: ≤ 10 µM

Molecule: CC(=O)N1CCC[C@]12CC=CCCCC1(CCCC=CCCCOC(=O)N3CC[C@@]4(C3)NC(=O)[C@H](CSCc3cccc(c3)CSC[C@@H](C(=O)N[C@@H](C)C(N)=O)NC(=O)[C@H](Cc3csc5ccccc35)NC(=O)[C@H](Cc3ccccc3C(F)(F)F)NC4=O)NC(=O)[C@H](Cc3ccccc3)NC(=O)[C@H](C)NC(=O)C(C)(C)NC(=O)[C@H](Cc3cccc(C(=O)O)c3)NC(=O)[C@H](CC(=O)O)NC1=O)NC(=O)[C@H](CC(C)(C)C)NC(=O)[C@H](CC(=O)O)NC2=O (stereo partly drawn) [I-375, Ac-PL3-Asp-Npg-B5-Asp-3COOHF-Aib-Ala-Phe-[mXyl]Cys-PyrS2-2F3MeF-BztA-Cys-Ala-NH2]
- IC50 (absolute IC50, read-out: COLO320DM Proliferation Abs IC50): ≤ 10 µM

Molecule: Ac-PL3-Asp-Npg-B5-Asp-3COOHF-Aib-Ala-Phe-Lys*3-PyrS2-[MorphAc]2NH2F-BztA-GlnR*3-Ala-NH2 [I-1753]
- IC50 [1]: > 20 µM

Molecule: CC(=O)N1CCC[C@@]1(C)C(=O)N[C@@H](CC(=O)O)C(=O)N[C@H](C(=O)N[C@]1(C)CCCCCCCCOC(=O)N2CC[C@@]3(C2)NC(=O)[C@H](CCCCNC(=O)CC[C@@H](C(=O)N[C@@H](C)C(N)=O)NC(=O)[C@H](Cc2csc4ccccc24)NC(=O)[C@H](Cc2ccsc2)NC3=O)NC(=O)[C@H](Cc2ccccc2)NC(=O)[C@H](C)NC(=O)C(C)(C)NC(=O)[C@H](Cc2cccc(C(=O)O)c2)NC(=O)[C@H](CC(=O)O)NC1=O)C(C)C (relative stereo) [I-237, Ac-MePro-Asp-Val-R5-Asp-3COOHF-Aib-Ala-Phe-Lys*3-PyrS2-3Thi-BztA-GlnR*3-Ala-NH2]
- IC50 [1]: > 20 µM

Molecule: Ac-PL3-Asp-DipA-B5-Asp-3COOHF-CyLeu-Ala-Phe-Lys*3-PyrS2-2F3MeF-BztA-GlnR*3-Ser-NH2 [I-1772]
- IC50 [1]: ≤ 10 µM

Molecule: Ac-PL3-Asp-Ile-B5-Asp-3COOHF-Aib-Ala-Phe-GlnR*3-PyrS2-Phe-34ClF-1MeK*3-NH2 [I-1370]
- IC50 [1]: ≤ 10 µM

Molecule: 124TriAc-PL3-Asp-Npg-B5-Asp-3COOHF-Aib-Ala-Phe-Lys*3-PyrS2-3Thi-BztA-GlnR*3-Ala-NH2 [I-1075]
- IC50 [1]: > 20 µM

Molecule: Ac-PL3-Asp-Npg-B5-Asp-3COOHF-Aib-Ala-Phe-Lys*3-PyrS2-[4PyPrpc]2NH2F-BztA-GlnR*3-Ala-NH2 [I-1743]
- IC50 [1]: 10 to 20 µM

Molecule: Ac-PL3-Asp-Npg-B5-Asp-3COOHF-Aib-Ala-Phe-Lys*3-PyrS2-3Thi-BztA-GlnR*3-Ser-NH2 [I-721]
- IC50 [1]: ≤ 10 µM

Molecule: Ac-PL3-Asp-Ile-B5-Asp-3COOHF-Aib-Ala-Phe-GlnR*3-PyrS2-Phe-34ClF-AsnEDA*3-NH2 [I-1376]
- IC50 [1]: ≤ 10 µM

Molecule: Ac-PL3-Asp-Ile-B5-Asp-3COOHF-Ala-Ala-Phe-Lys*3-PyrS2-3Thi-BztA-GlnR*3-Ala-NH2 [I-970]
- IC50 [1]: ≤ 10 µM

Molecule: Ac-PL3-Asp-DipA-B5-Asp-3COOHF-Ala-Ala-Phe-Lys*3-PyrS2-3Thi-34ClF-GlnR*3-Ala-Ala-[C18-PEG8]-Lys-NH2-NH2 [I-1792]
- IC50 [1]: ≤ 10 µM

Molecule: Ac-PL3-Asp-Cha-B5-Asp-3COOHF-CyLeu-Ala-Phe-Lys*3-PyrS2-3Thi-34ClF-GlnR*3-NH2 [I-1047]
- IC50 [1]: ≤ 10 µM

Molecule: Ac-PL3-Asp-Npg-B5-Asp-3COOHF-Aib-Ala-Phe-dDab*3-PyrS2-3Thi-BztA-GlnR*3-Ala-Ala-Ala-Ala-Ala-NH2 [I-790]
- IC50 [1]: ≤ 10 µM

Molecule: Ac-PL3-Asp-Npg-B5-Asp-3COOHF-Aib-Ala-Phe-Lys*3-PyrS2-3Thi-34ClF-GlnR*3-Ala-Ala-Ala-[mPEG37]-Lys [I-1708]
- IC50 [1]: ≤ 10 µM

Molecule: 2IAPAc-PL3-Asp-Npg-B5-Asp-3COOHF-Aib-Ala-Phe-Lys*3-PyrS2-3Thi-BztA-GlnR*3-Ala-NH2 [I-1064]
- IC50 [1]: > 20 µM
